The text below walks through data of ChEMBL document CHEMBL3272153, “Synthetic inhibitors of Escherichia coli, calf thymus, and Ehrlich ascites tumor thymidylate synthetase” (J Med Chem, 1976).

Structures are written as SMILES. pKi: −log10 of the molar value.

In general, pKi refers to the Ki on a negative log10 scale, so that one unit is a factor of ten. Higher therefore signals a small Ki.

Data set [1] can be described thus: Competitive inhibition of Escherichia coli thymidylate synthetase using 5-[3H]-dUMP as substrate after 7 mins by scintillation counting analysis.
Data set [2] can be described thus: Competitive inhibition of thymidylate synthetase in mouse Ehrlich ascites tumor cells using 5-[3H]-dUMP as substrate after 7 mins by scintillation counting analysis.
Data set [3] is described as follows: Competitive inhibition of calf thymus thymidylate synthetase using 5-[3H]-dUMP as substrate after 10 mins by scintillation counting analysis. Also noted: species or system Bos taurus.
The species entered for data set [4] is Bos taurus. In words: Ratio of Ki to Km for calf thymus thymidylate synthetase.
Data set [5] is described as follows: Selectivity ratio of Ki/Km for calf thymus thymidylate synthetase to Ki/Km for thymidylate synthetase in mouse Ehrlich ascites tumor cells.
Data set [6] is filed under the species Mus musculus. In words: Ratio of Ki to Km for thymidylate synthetase in mouse Ehrlich ascites tumor cells.
Data set [7] is described as follows: Inhibition of Escherichia coli thymidylate synthetase using 5-[3H]-dUMP as substrate.
The nature of data set [8]: Non-competitive inhibition of calf thymus thymidylate synthetase using 5-[3H]-dUMP as substrate after 10 mins by scintillation counting analysis. Also noted: species or system Bos taurus.
The nature of data set [9]: Retardation factor of the compound. Type of data set: physicochemical.
The species entered for data set [10] is Mus musculus. In words: Irreversible inactivation of thymidylate synthetase in mouse Ehrlich ascites tumor cells assessed as enzyme activity using dUMP as substrate at 0.33 mM preincubated for 3 hrs in presence of cofactor tetrahydrofolate.
The species named for data set [11] is Bos taurus. Kind of data set: Irreversible inactivation of calf thymus thymidylate synthetase assessed as enzyme activity using dUMP as substrate at 0.33 mM preincubated for 3 hrs in presence of cofactor tetrahydrofolate.
Data set [12] is filed under the species Bos taurus. In words: Irreversible inactivation of calf thymus thymidylate synthetase assessed as enzyme activity using dUMP as substrate at 0.33 mM preincubated for 3 hrs in absence of cofactor tetrahydrofolate.
The species entered for data set [13] is Mus musculus. In words: Irreversible inactivation of thymidylate synthetase in mouse Ehrlich ascites tumor cells assessed as enzyme activity using dUMP as substrate at 0.33 mM preincubated for 3 hrs in absence of cofactor tetrahydrofolate.

For `COCc1cn([C@H]2C[C@H](O)[C@@H](COP(=O)(O)O)O2)c(=O)[nH]c1=O`, the pKi was 4.38 in data set [1], 4.72 in data set [2] and 4.49 in [3]. The Ki/Km came to 3.5 in data set [4] and 4.7 in [6]. Moreover, in data set [5], the Selectivity ratio came out at 0.7.

`O=Cc1cn([C@H]2C[C@H](O)[C@@H](COP(=O)(O)O)O2)c(=O)[nH]c1=O`: the pKi was 7.00 in data set [1], 7.10 in data set [2], 7.89 in [7] and 7.05 in data set [8]. Moreover, the figures for the Ki/Km in [4] and in data set [6] were 0.01 and 0.02, respectively. The Selectivity ratio in data set [5] worked out at 0.5.

As to `O=c1[nH]c(=O)n([C@H]2C[C@H](O)[C@@H](COP(=O)(O)O)O2)cc1CC1CO1` (stereo not given in full), the Rf in [9] was 0.45. For the same compound, the figures for the pKi in data set [1], in data set [2] and in data set [3] were 4.60, 4.85 and 4.48, respectively. The Activity was determined as 120% in [10], 85% in data set [11], 104% in data set [12] and 94% in data set [13]. Further, the Ki/Km came out at 3.6 in data set [4] and 3.5 in data set [6]. In [5], the Selectivity ratio was 1.

Regarding `CC(=O)c1cn([C@H]2C[C@H](O)[C@@H](COP(=O)(O)O)O2)c(=O)[nH]c1=O`, the pKi in data set [1] is 4.19; in [2], 4.66; in data set [3] it was 4.14. The Ki/Km in data set [4] amounted to 8.1; in [6] it was 5.5. Further, the Selectivity ratio in data set [5] was determined as 1.5.

As to `O=c1[nH]c(=O)n([C@H]2C[C@H](O)[C@@H](COP(=O)(O)O)O2)cc1CO`, the pKi was 5.40 in data set [1], 6.22 in [2], 4.98 in data set [7] and 5.40 in data set [3]. The figures for the Ki/Km in [4] and in [6] were 0.44 and 0.15, respectively. The Selectivity ratio in data set [5] came out at 3.

For the compound `[N-]=[N+]=NCc1cn([C@H]2C[C@H](O)[C@@H](COP(=O)(O)O)O2)c(=O)[nH]c1=O`, the results for the pKi in [1], in [2] and in data set [3] were 4.74, 5.30 and 4.68, respectively. Moreover, the Activity in data set [10] amounted to 87%; in data set [11] it was 83%; in data set [12], 77%; in [13], 60%. Further, the values for the Ki/Km in data set [4] and in [6] were 2.3 and 1.2, respectively. In addition, in [5], the Selectivity ratio is 1.9.

Turning to `O=c1[nH]c(=O)n([C@H]2C[C@H](O)[C@@H](COP(=O)(O)O)O2)cc1COCc1ccccc1`, the pKi is 4.60 in data set [1], 5.05 in [2] and 4.38 in data set [3]. Besides, the Ki/Km in data set [4] came to 4.6; in data set [6], 2.2. In addition, in data set [5], the Selectivity ratio worked out at 2.

`C=CCc1cn([C@H]2C[C@H](O)[C@@H](COP(=O)(O)O)O2)c(=O)[nH]c1=O` registered a Rf in [9] of 0.55. In addition, the pKi in data set [1] was 3.87; in [2], 4.40; in data set [3] it was 3.89. For the same compound, the Ki/Km came to 14 in data set [4] and 10 in data set [6]. The Selectivity ratio in data set [5] amounted to 1.4.
